Source: US10350228B2, “Treatment of sickle cell disease and inflammatory conditions” (Seattle Genetics, Inc., priority 2012, dated 2019)
Entries after “also recorded” stand apart in the source; their conditions may differ.

Tests used:
blood neutrophils = experiment: Blood neutrophil counts in treated mice; type: in vivo, Balb/c mice; settings: 10 or 100 mM in drinking water, day 21
Experimental: (§1) Female Balb/c mice were given oral 2-fluorofucose in their drinking water (10 mM, 100 mM, n=3/group) or left untreated. Mice remained on the 2-fluorofucose-containing water through day 21 when blood was collected. Pre-dose bleeds were collected for baseline comparison. Total white cells/μL blood were determined by hemacytometer using Turk's solution (0.01% gentian violet in 3% acetic acid) to exclude red blood cells. RBCs were eliminated from the remainder of the blood by osmotic lysis for flow cytometric analysis. Cells were incubated with anti-Gr-1-FITC antibodies (BD Biosciences) to identify neutrophils, and a recombinant P-selectin-human Fc fusion protein (R&D Systems) or a recombinant E-selectin-human Fc fusion protein. Cells were washed and then incubated with a PE-labeled goat anti-human IgG-Fc secondary antibody (Jackson Immunoresearch) to detect bound P-selectin or E-selectin. Samples were collected on a FACSCalibur flow cytometer and analyzed using CellQuest software. The percentage of Gr-1+ cells was determined and absolute number of neutrophils was calculated using the total white cell number from the hemacytometer count. In addition, flow samples were gated for Gr-1+ cells to assess P-selectin or E-selectin binding to neutrophils by histogram analysis. The geometric mean of the P-selectin or E-selectin fluorescent signal was determined from the histogram. […]

P-selectin = P-selectin binding to neutrophils from treated mice (flow cytometry); type: in vivo, Balb/c mice; settings: 10 or 100 mM in drinking water, day 21
Experimental: as §1

[1] = system: antibody core fucosylation; experiment: Inhibition of antibody core fucosylation by fucose analogs; type: cell-based
Text: Methods of determining whether a fucose analog is capable of having an effect on antibody core fucosylation is provided in WO 2012/019165.

NY1DD sickle cell mice = experiment: Hemoglobin-induced vascular stasis in dorsal skin fold chamber venules; type: in vivo; settings: 20 mM in drinking water 7 days
Experimental: NY1DD sickle cell mice were given plain water or 20 or 100 mM 2-fluorofucose in their drinking water ad libitum for 7 days. On day 4, dorsal skin fold chambers were implanted onto the mice (n=4). On day 7, flowing venules in the dorsal skin-fold chamber window were selected and mapped using intravital microscopy. Thereafter, the mice were infused via the tail vein with human stroma-free hemoglobin (0.32 μmols heme/kg), a known inducer of vascular stasis in SCD mice. At 1 and 4 hours after infusion the same venules were re-examined and the percentage of vessels that had become static (no flow) was recorded. A control group of NY1DD mice (n=3) with implanted dorsal skin-fold chambers was given water to drink and injected intraperitoneally with hemin (40 μmols/kg×3 days) a known inhibitor of vascular stasis

E-selectin [2] = experiment: Adhesion of LS174T cells to immobilized E-selectin; type: cell-based; settings: cells cultured with 100 μM for 10 days; adhesion at 4° C.
Experimental: LS174T cells (ATCC) were cultured in MEM-Eagle with 10% FBS with or without 100 μM 2-fluorofucose for 10 days. For adhesion to purified E-selectin, non-tissue culture treated 96-well clear bottom black culture plates were coated with E-selectin-Fc chimera (5 μg/mL, PBS) and controls with 3% BSA/PBS, 2 hr at 37° C., then overnight at 4° C. Wells were washed two times with PBS and blocked with 3% BSA/PBS (2 hr, room temperature). LS174T cells were harvested and washed with PBS 2 times, labeled with 5 μM Calcein-AM in serum-free medium (15 min), and washed with DBPS two times. Cells in DPBS (100 μL) of were added to each well and the plate was kept at 4° C. for 2 hr. Plates were read at 480 nm excitation and 520 nm emission (total cell reading) and then washed with DPBS four times, followed by fluorescent analysis.

NF-κB phospho-p65 = experiment: Western blot of NF-κB phospho-p65 in liver nuclear extracts of sickle cell mice; type: in vivo, NY1DD sickle cell mice; settings: 7 days
Experimental: (§2) NY1DD sickle cell mice were given plain water or 20 or 100 mM 2-fluorofucose in their drinking water ad libitum for 7 days. The treatment and control group had four mice per treatment group. On day 7, the mice were sacrificed with CO2. An EDTA blood sample was collected from the heart and the liver was removed and frozen in liquid nitrogen. Total white blood cell counts and differentials were performed by manual counting using a hemocytometer and Wright-stained blood smears, respectively. Nuclear extracts were prepared from nuclei isolated from liver homogenates. Western blots of the nuclear extracts were immunostained with antibodies to NF-κB phospho-p65 a marker of NF-κB activation.

white blood cells = experiment: White blood cell counts in sickle cell mice; type: in vivo, NY1DD sickle cell mice; settings: 7 days
Experimental: as §2

E-selectin [3] = experiment: E-selectin binding to neutrophils from treated mice (flow cytometry); type: in vivo, Balb/c mice; settings: 10 or 100 mM in drinking water, day 21
Experimental: as §1

activated HUVEC cells = experiment: Adhesion of LS174T cells to TNFα-activated HUVEC cells; type: cell-based; settings: cells cultured with 100 μM for 10 days; adhesion at 4° C.
Experimental: For adhesion to activated HUVEC cells, non-tissue culture treated 96-well clear bottom black culture plates were coated with attachment factor (100 μL/well), 30 min at room temperature. Wells were aspirated and HUVECs were added to half of the wells (40,000 cells/200 μL cell culture medium) while 3% BSA/PBS was added to the remaining control wells (100 μL) and the plate was incubated overnight at 37° C., 5% CO2. The confluent HUVEC cells were then treated with TNFα (20 ng/mL in PBS) for 4 hr at 37° C. Meanwhile tumor cells were labeled with Calcein-AM as described. The wells of the 96-well plate were all aspirated and seeded with 2-fluorofucose-treated or untreated labeled LS174T cells (500000 cells/well) and the plate was kept at 4° C. for 2 hr. Plates were read at 480 nm excitation and 520 nm emission (total cell reading) and then washed with DPBS four times, followed by fluorescent analysis. (see FIG. 4; The numeral 1 refers to 2-fluorofucose).

## C[C@H](O)[C@@H](O)[C@@H](O)[C@H](F)C=O [2-fluorofucose, 2-deoxy-2-fluorofucose]
Blood neutrophils
  blood neutrophil counts: significantly increased
P-selectin
  P-selectin binding to neutrophils: dimished and loss
[1]; Table 2, 50 μM analog, read-out: Inhibition at 50 μM
  inhibition at 50 µM: > 80%
[1]; Table 2, 1 mM analog
  inhibition at 1000 µM: > 80%
NY1DD sickle cell mice; 1 hour after hemoglobin infusion
  percent static venules (vascular stasis): partially inhibited stasis; also recorded: partially diminished
NY1DD sickle cell mice; 4 hours after hemoglobin infusion
  percent static venules (vascular stasis): partially inhibited stasis; also recorded: partially diminished
E-selectin [2]
  adhesion of LS174T cells to immobilized E-selectin: decreased adhesion; also recorded: diminished adhesion to selectins
NF-κB phospho-p65; 20 mM in drinking water
  Nuclear NF-κB phospho-p65 in liver: partially diminished
NF-κB phospho-p65; 100 mM in drinking water
  Nuclear NF-κB phospho-p65 in liver: markedly decreased
White blood cells; 20 mM in drinking water
  White blood cells counts (mean+SD): 22.1+5.2 K/μL
White blood cells; 100 mM in drinking water
  White blood cells counts (mean+SD): 34.2+7.2 K/μL
E-selectin [3]
  E-selectin binding to neutrophils: loss
Activated HUVEC cells
  adhesion of LS174T cells to HUVEC cells activated with TNFα: decreased adhesion
